Source: patent US7112676B2, “Pyrimido compounds having antiproliferative activity” (Hoffmann-La Roche Inc., priority 2002, dated 2006)

What was measured:
Assay type in all cases: biochemical
PDGFR = PDGFR kinase HTRF assay; settings: 2.3 μM ATP, read-out: IC50 (μM) - Enzyme Inhibition Assays PDGFR
Procedure: (§1) To determine inhibition of KDR, FGFR, EGFR, and PDGFR activity, kinase assays were conducted using an HTRF (Homogeneous Time Resolved Fluorescence) assay. This assay is described in A. J. Kolb et. al., Drug Discovery Today, 1998, 3(7), p 333.
(§2) Kinase activity assays were performed in 96-well polypropylene plates (Falcon) with a total volume of 90 μL in each well. Each well contained 1 μM KDR substrate (Biotin-EEEEYFELVAKKKK), 1 nM activated KDR, and a test compound with one of 8 assay concentrations ranging from 100 μM to […] (1:5 serial dilution). The kinase activity assay was done in the presence of 100 mM HEPES, pH 7.4, 1 mM DTT, 0.1 mM Na2VO4, 25 mM MgCl2, 50 mM NaCl (from KDR stock solution), 1% DMSO (from compound), 0.3 mM ATP (at Km concentration) and 0.02% BSA. The reaction was incubated at 37° C. for 30 minutes. To stop the KDR reaction, 72 μL of reaction mixture was transferred into a STOP plate containing 18 μL of revelation buffer (20 mM EDTA, 50 mM HEPES, pH 7.4, 0.02% BSA, 10 nM Eu-labelled anti-pY antibody (final conc. 2 nM), and 100 nM streptavidin (final conc. 20 nM)). After mixing, 35 μL of solution was transferred into duplicate wells of a 384-well black plate (Costar), and read at 615/665 nm on a Wallac Victor 5 reader.
(§3) The PDGFR kinase activity assay was performed with 1 μM substrate (Biotin-EEEEYFELV), 1.0 nM PDGFR, test compounds, 100 mM HEPES, pH 7.4, 1 mM DTT, 5 mM MgCl2, 2 mM MnCl2, 1% DMSO, 2.3 μM ATP (Km for PDGFR), 0.1 mM Na2VO4, and 0.02% BSA. The rest of the assay was performed in the same manner as the KDR assay.
(§4) Compound IC50 values were determined from duplicate sets of data, and calculated by using Excel and fitting data to equation Y=[(a−b)/{1+(X/c)^d]+b, where a and b are enzyme activity in the presence of no test inhibitor compound and an infinite amount of inhibitor test compound, respectively, c is the IC50 and d is the hill constant of the compound response. The IC50 value is the concentration of test compound that reduces by 50% the enzyme activity under the test conditions described.

KDR = molecular target: T1, KDR (Homo sapiens, UniProt P35968); test: KDR kinase HTRF assay; settings: 0.3 mM ATP, read-out: IC50 (μM) - Enzyme Inhibition Assays KDR
T1 construct: EEE-tag
T1 sequence (P35968 20-1356, species assumed): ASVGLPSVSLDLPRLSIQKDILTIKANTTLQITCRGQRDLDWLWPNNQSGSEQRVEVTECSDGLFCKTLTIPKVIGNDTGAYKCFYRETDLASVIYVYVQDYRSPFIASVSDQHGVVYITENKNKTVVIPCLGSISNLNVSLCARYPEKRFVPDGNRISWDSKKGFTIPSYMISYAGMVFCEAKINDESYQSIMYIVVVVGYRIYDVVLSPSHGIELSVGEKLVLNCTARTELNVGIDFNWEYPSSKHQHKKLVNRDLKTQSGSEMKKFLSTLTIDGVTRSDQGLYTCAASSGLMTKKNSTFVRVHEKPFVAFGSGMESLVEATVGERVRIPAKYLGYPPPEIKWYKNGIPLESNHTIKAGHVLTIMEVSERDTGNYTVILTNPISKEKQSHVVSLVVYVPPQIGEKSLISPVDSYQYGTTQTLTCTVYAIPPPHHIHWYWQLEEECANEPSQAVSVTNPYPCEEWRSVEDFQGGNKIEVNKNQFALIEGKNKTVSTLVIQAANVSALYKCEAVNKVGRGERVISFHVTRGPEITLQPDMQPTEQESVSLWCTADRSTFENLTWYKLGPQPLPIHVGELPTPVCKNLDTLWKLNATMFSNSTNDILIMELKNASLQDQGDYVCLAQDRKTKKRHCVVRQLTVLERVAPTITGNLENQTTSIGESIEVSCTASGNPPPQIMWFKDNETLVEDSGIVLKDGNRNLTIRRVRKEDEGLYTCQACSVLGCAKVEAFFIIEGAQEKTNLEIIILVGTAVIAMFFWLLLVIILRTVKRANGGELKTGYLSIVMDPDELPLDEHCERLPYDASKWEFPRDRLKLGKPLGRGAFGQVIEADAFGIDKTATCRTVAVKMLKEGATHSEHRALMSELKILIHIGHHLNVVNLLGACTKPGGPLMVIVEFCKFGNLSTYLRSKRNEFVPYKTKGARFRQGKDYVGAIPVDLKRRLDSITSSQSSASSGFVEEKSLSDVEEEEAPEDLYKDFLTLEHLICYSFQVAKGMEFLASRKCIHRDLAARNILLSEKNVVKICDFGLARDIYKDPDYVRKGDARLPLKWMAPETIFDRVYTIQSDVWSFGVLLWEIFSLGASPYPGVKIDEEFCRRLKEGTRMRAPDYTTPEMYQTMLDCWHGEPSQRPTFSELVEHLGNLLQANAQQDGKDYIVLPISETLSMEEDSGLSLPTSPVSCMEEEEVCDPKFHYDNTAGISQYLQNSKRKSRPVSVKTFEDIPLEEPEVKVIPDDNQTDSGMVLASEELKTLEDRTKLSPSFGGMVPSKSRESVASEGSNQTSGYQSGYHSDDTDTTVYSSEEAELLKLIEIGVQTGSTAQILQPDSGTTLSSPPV
Procedure: as §1
Prior to kinase reaction, recombinant EEE-tagged KDR was activated in the presence of activation buffer (50 mM HEPES, pH 7.4, 1 mM DTT, 10% glycerol, 150 mM NaCl, 0.1 mM EDTA, 26 mM MgCl2, and 4 mM ATP). The enzyme was incubated at 4° C. for 1 hour.
as §2, §4

EGFR = EGFR (Homo sapiens, UniProt P00533); test: EGFR kinase HTRF assay; settings: 0.5 μM ATP, read-out: IC50 (μM) - Enzyme Inhibition Assays EGFR
Sequence of EGFR (P00533 25-1210, species assumed): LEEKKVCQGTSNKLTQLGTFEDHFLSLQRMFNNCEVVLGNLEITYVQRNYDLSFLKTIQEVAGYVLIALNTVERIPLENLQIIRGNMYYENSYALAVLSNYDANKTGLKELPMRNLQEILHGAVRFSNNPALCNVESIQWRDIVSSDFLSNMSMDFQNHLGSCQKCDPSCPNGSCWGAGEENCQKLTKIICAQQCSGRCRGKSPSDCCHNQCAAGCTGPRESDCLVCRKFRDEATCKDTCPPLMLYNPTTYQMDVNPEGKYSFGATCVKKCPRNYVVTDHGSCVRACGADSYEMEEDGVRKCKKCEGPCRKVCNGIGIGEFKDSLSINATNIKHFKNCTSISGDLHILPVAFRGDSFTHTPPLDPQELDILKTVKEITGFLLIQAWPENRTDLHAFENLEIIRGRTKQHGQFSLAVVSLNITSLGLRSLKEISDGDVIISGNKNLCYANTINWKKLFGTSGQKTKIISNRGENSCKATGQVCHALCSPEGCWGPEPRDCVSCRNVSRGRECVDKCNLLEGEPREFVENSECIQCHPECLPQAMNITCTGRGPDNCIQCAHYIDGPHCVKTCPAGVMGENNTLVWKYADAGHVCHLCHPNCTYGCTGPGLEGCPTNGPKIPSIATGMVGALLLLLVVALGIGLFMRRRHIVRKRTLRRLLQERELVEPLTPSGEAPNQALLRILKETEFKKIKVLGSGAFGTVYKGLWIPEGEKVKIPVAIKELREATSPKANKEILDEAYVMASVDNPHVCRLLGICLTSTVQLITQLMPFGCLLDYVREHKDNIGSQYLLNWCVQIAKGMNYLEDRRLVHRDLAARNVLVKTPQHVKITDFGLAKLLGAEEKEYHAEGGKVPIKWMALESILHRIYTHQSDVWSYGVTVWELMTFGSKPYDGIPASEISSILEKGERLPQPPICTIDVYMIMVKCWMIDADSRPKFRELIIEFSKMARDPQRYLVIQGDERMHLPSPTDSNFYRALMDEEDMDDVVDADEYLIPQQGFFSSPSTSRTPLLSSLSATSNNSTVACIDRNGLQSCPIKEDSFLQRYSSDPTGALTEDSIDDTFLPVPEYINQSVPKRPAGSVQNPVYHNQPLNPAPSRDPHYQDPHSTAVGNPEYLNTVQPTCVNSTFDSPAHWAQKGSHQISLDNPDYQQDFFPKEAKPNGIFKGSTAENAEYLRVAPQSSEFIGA
Procedure: as §1, §2
as §3, with “EGFR” for “PDGFR”, “1.5” for “1.0”, “EGFR,” for “PDGFR,”, “0.5” for “2.3”, “EGFR),” for “PDGFR),”
as §4

Measured: IC50

COc1ccc(N2C(=O)N(c3ccccc3)c3nc(Nc4ccccc4)ncc3C2C)cc1 (racemic) [Example 1g, (±)-3-(4-Methoxy-phenyl)-4-methyl-1-phenyl-7-phenylamino-3,4-dihydro-1H-pyrimido[4,5-d]pyrimidin-2-one]
< 10 µM: all assays above

COc1ccc(N2C(=O)N(c3ccc(OC)cc3)C(C)c3cnc(Nc4ccccc4)nc32)cc1 (racemic) [Example 4b, (±)-1,3-Bis-(4-methoxy-phenyl)-4-methyl-7-phenylamino-3,4-dihydro-1H-pyrimido[4,5-d]pyrimidin-2-one]
< 10 µM: all assays above

COc1ccc(N2C(=O)N(c3cccc(C#N)c3)c3nc(Nc4ccccc4)ncc3C2C)cc1 (racemic) [Example 5b, (±)-3-[3-(4-Methoxy-phenyl)-4-methyl-2-oxo-7-phenylamino-3,4-dihydro-2H-pyrimido[4,5-d]pyrimidin-1-yl]-benzonitrile]
< 10 µM: all assays above

COc1ccc(N2C(=O)N(c3cccc(C(N)=O)c3)c3nc(Nc4ccccc4)ncc3C2C)cc1 (racemic) [Example 6, (±)-3-[3-(4-Methoxy-phenyl)-4-methyl-2-oxo-7-phenylamino-3,4-dihydro-2H-pyrimido[4,5-d]pyrimidin-1-yl]-benzamide]
< 10 µM: all assays above

COc1ccc(N2C(=O)N(c3ccccc3)c3nc(Nc4ccccc4)ncc3C2C)c(F)c1 (racemic) [Example 8d, (±)-3-(2-Fluoro-4-methoxy-phenyl)-4-methyl-1-phenyl-7-phenylamino-3,4-dihydro-1H-pyrimido[4,5-d]pyrimidin-2-one]
< 10 µM: all assays above

COc1ccc(N2C(=O)N(c3cccc(C#N)c3)c3nc(Nc4ccccc4)ncc3C2C)c(F)c1 (racemic) [Example 9b, (±)-3-[3-(2-Fluoro-4-methoxy-phenyl)-4-methyl-2-oxo-7-phenylamino-3,4-dihydro-2H-pyrimido[4,5-d]pyrimidin-1-yl]-benzonitrile]
< 10 µM: all assays above

COc1ccc(N2C(=O)N(c3cccc(C(N)=O)c3)c3nc(Nc4ccccc4)ncc3C2C)c(F)c1 (racemic) [Example 10, (±)-3-[3-(2-Fluoro-4-methoxy-phenyl)-4-methyl-2-oxo-7-phenylamino-3,4-dihydro-2H-pyrimido[4,5-d]pyrimidin-1-yl]-benzamide]
< 10 µM: all assays above

COc1ccc(N2C(=O)N(c3ccccc3)c3nc(Nc4ccccc4)ncc3[C@@H]2C)cc1 (single isomer, unassigned) [Example 3]
< 10 µM: all assays above

COc1ccc(N2C(=O)N([C@H](C)CO)c3nc(Nc4ccccc4)ncc3[C@@H]2C)cc1 [Example 15b, 1-(2-Hydroxy-1-(R)-methyl-ethyl)-3-(4-methoxy-phenyl)-4-(S)-methyl-7-phenylamino-3,4-dihydro-1H-pyrimido[4,5-d]pyrimidin-2-one]
< 10 µM: all assays above
